Experimental data: patent US7582694B2, “Antimicrobial lubricant for wood fiber-plastic composites” (Lonza, Inc., priority 2002, dated 2009)

Assays:
C. globosum = assay: agar plate method, inhibition of fungus growth; type: cell-based; conditions: for percent inhibition (retardation) of the fungal growth, C. globosum: aqueous solution
Protocol: (§1) The efficacy of aqueous solutions of alkyldimethylbenzyl ammonium lauryl sulfate and didecyldimethyl ammonium lauryl sulfate to inhibit fungus growth was evaluated by the agar plate method known in the art. Also tested were two commercially known biocides: didecyldimethyl ammonium chloride (Bardac® 2080) and alkyldimethylbenzyl ammonium chloride (Barquat® MB-80).
(§2) The test data are reported as a percent inhibition (retardation) of the fungal growth.

T. versicolor = assay: agar plate method, inhibition of fungus growth; type: cell-based; conditions: for percent inhibition (retardation) of the fungal growth, T. versicolor: aqueous solution
Protocol: as §1, §2

P. placenta = assay: agar plate method, inhibition of fungus growth; type: cell-based; conditions: for percent inhibition (retardation) of the fungal growth, P. placenta: aqueous solution
Protocol: as §1, §2

G. trabeum = assay: agar plate method, inhibition of fungus growth; type: cell-based; conditions: for percent inhibition (retardation) of the fungal growth, G. trabeum: aqueous solution
Protocol: as §1, §2

[1] = system: brown-rot fungus G. trabeum; assay: standard soil block test (American Wood Preservation Association E10) on extruded composites; conditions: extruded samples containing the salt vs conventional lubricant control; 22 weeks G. trabeum
Protocol: The efficacy of extruded samples containing alkyldimethylbenzyl ammonium lauryl sulfate or didecyldimethyl ammonium lauryl sulfate to inhibit fungal growth was evaluated by the standard soil block test method (American Wood Preservation Association E10) known in the art. The biocide effectiveness is determined by % weight loss in wood component of the tested samples. The sample blocks (13 mm×14 mm×14 mm) were exposed to the brown-rot fungus G. trabeum for 22 weeks, with four replicates per treatment.

[2] = Chaetomium globosum, read-out: percent inhibition (retardation) of the fungal growth, C. globosum
[3] = Trametes versicolor, read-out: percent inhibition (retardation) of the fungal growth, T. versicolor
[4] = read-out: percent inhibition (retardation) of the fungal growth, P. placenta
[5] = Gloeophyllum trabeum, read-out: percent inhibition (retardation) of the fungal growth, G. trabeum

Molecule | inhibition at 50 ppm (C. globosum; [2]) | inhibition at 500 ppm (C. globosum; [2]) | inhibition at 50 ppm (T. versicolor; [3]) | inhibition at 500 ppm (T. versicolor; [3]) | inhibition at 50 ppm (P. placenta; [4]) | inhibition at 500 ppm (P. placenta; [4]) | inhibition at 50 ppm (G. trabeum; [5]) | inhibition at 500 ppm (G. trabeum; [5]) | percent inhibition (retardation) of the fungal growth, C. globosum (C. globosum; 50 ppm) | percent inhibition (retardation) of the fungal growth, C. globosum (C. globosum; 500 ppm) | percent inhibition (retardation) of the fungal growth, T. versicolor (T. versicolor; 50 ppm) | percent inhibition (retardation) of the fungal growth, T. versicolor (T. versicolor; 500 ppm) | percent inhibition (retardation) of the fungal growth, P. placenta (P. placenta; 50 ppm) | percent inhibition (retardation) of the fungal growth, P. placenta (P. placenta; 500 ppm) | percent inhibition (retardation) of the fungal growth, G. trabeum (G. trabeum; 50 ppm) | percent inhibition (retardation) of the fungal growth, G. trabeum (G. trabeum; 500 ppm) | weight loss compared with control samples [1]
CCCCCCCCCC[N+](C)(C)CCCCCCCCCC [didecyldimethyl ammonium chloride, reference compound] | 68.2% | 74.3% | 36.8% | 80.7% | 88.4% | 89.2% | 78.4% | 82.4% | – | – | – | – | – | – | – | – | –
Didecyldimethyl ammonium lauryl sulfate | – | – | – | – | – | – | – | – | 68.0% | 78.7% | 44.0% | 81.3% | 82.6% | 86.0% | 58.0% | 80.8% | significantly lower weight loss than the control samples
alkyldimethylbenzyl ammonium chloride [reference compound] | – | – | – | – | – | – | – | – | 63.8% | 81.8% | 55.0% | 85.0% | 86.8% | 87.5% | 82.1% | 89.0% | –
alkyldimethylbenzyl ammonium lauryl sulfate | – | – | – | – | – | – | – | – | 64.5% | 75.6% | 32.2% | 72.9% | 83.0% | 86.6% | 51.7% | 82.3% | significantly lower weight loss than the control samples
